What all share (type): cell-based
One assay has as its system OVCAR-3. The experiment in a line: NCI human tumor cell line screen, Ovarian OVCAR-3. The settings on record: Ovarian OVCAR-3. An excerpt:
(§1) Current research in the control of cancer in the United States is coordinated by the National Cancer Institute (NCI). To determine whether a substance has anti-cancer properties, the NCI has established a systematic protocol. […] The protocol, and the established statistical means for analyzing the results obtained by the standardized testing are fully described in the literature. […] Both of these references are incorporated herein by this reference thereto.

A further assay relates to SF-295. Description: NCI human tumor cell line screen, CNS SF-295. As to conditions: CNS SF-295.
From the text: as §1

The next assay concerns A498. Description: NCI human tumor cell line screen, Renal A498. As to conditions: Renal A498.
From the text: as §1

The next assay deals with NCI-H460. The experiment in a line: NCI human tumor cell line screen, Lung-NSC NCI-H460. The settings on record: Lung-NSC NCI-H460.
From the text: as §1

For the next assay, the system named is KM20L2. The experiment in a line: NCI human tumor cell line screen, Colon KM20L2. The settings on record: Colon KM20L2.
From the text: as §1

For a further assay, the system named is SK-MEL-5. Description: NCI human tumor cell line screen, Melanoma SK-MEL-5. As to conditions: Melanoma SK-MEL-5.
From the text: as §1

This passage reports GI-50, LC-50 and TGI results from US5410024A, “Human cancer inhibitory pentapeptide amides” (Arizona Board of Regents acting on behalf of Arizona State …, priority 1993, dated 1995).

By TGI is commonly meant the concentration at which net growth stops. Low values mean more potent growth arrest, high ones less potent growth arrest.

For the substance “L-Dolavalyl-L-Valyl-N-Methyl-(S,S,R)-Dolaisoleucyl-(S,R,R)-Dolaproyl-L-Phenylalanineamide-N-(1-adamantane) [Compound 9j]”, the GI-50 in the assay on OVCAR-3 was 0.000019 µg/mL; in the assay with SF-295 it was 0.000030 µg/mL; with A498, 0.000034 µg/mL; in the assay on NCI-H460, 0.000014 µg/mL; in the assay on KM20L2, 0.000027 µg/mL; with SK-MEL-5, 0.000022 µg/mL. Further, the LC-50 with OVCAR-3, in the assay on SF-295, in the assay with A498, in the assay on NCI-H460, in the assay with KM20L2 and in the assay on SK-MEL-5 was greater than 0.0001 µg/mL each time. Also, the TGI in the assay on OVCAR-3 was 0.055 ng/mL; with SF-295, greater than 0.1 ng/mL; in the assay with A498, greater than 0.1 ng/mL; in the assay on NCI-H460, 0.057 ng/mL; in the assay with KM20L2, 0.072 ng/mL; in the assay with SK-MEL-5 it was greater than 0.1 ng/mL.

Regarding “L-Dolavalyl-L-Valyl-N-Methyl-(S,S,R)-Dolaisoleucyl-(S,R,R)-Dolaproyl-L-Phenylalanineamide-N-(2-thiazole) [Compound 9a]”, the GI-50 with OVCAR-3 was 0.0000005 µg/mL; with SF-295 it was 0.0000038 µg/mL; in the assay with A498, 0.0000056 µg/mL; in the assay with NCI-H460, 0.0000018 µg/mL; with KM20L2, 0.0000020 µg/mL; in the assay on SK-MEL-5 it was 0.0000014 µg/mL. For the same substance, the LC-50 with OVCAR-3 amounted to 0.000088 µg/mL. Also, the TGI in the assay with OVCAR-3 was 0.0044 ng/mL; in the assay on SF-295 it was greater than 0.1 ng/mL; in the assay on A498, 0.09 ng/mL; with NCI-H460, 0.009 ng/mL; in the assay on KM20L2 it was 0.011 ng/mL; in the assay with SK-MEL-5, 0.08 ng/mL.

“L-Dolavalyl-L-Valyl-N-Methyl-(S,S,R)-Dolaisoleucyl-(S,R,R)-Dolaproyl-L-Phenylalanineamide-N-(methenyl-2-pyridine) [Compound 9i]”: the GI-50 in the assay with OVCAR-3 came to 0.000056 µg/mL; in the assay on SF-295, 0.00036 µg/mL; in the assay on A498 it was 0.00059 µg/mL; with NCI-H460, 0.000051 µg/mL; in the assay on KM20L2, 0.00033 µg/mL; with SK-MEL-5, 0.000029 µg/mL. Besides, the LC-50 in the assay on OVCAR-3, with SF-295, with A498, in the assay with NCI-H460, with KM20L2 and in the assay with SK-MEL-5 was greater than 0.01 µg/mL throughout. For the same substance, the TGI is 2 ng/mL with OVCAR-3; greater than 10 ng/mL in the assay on SF-295; greater than 10 ng/mL in the assay on A498; 1 ng/mL in the assay on NCI-H460; greater than 10 ng/mL in the assay with KM20L2; greater than 10 ng/mL in the assay with SK-MEL-5.

Take “L-Dolavalyl-L-Valyl-N-Methyl-(S,S,R)-Dolaisoleucyl-(S,R,R)-Dolaproyl-L-Phenylalanineamide-N-(methenyl-2-thiophene) [Compound 9h]”: the GI-50 with OVCAR-3 was less than 0.000001 µg/mL; in the assay on SF-295 it was 0.00014 µg/mL; in the assay with A498, 0.000055 µg/mL; in the assay on NCI-H460 it was 0.0000089 µg/mL; in the assay on KM20L2, 0.000049 µg/mL; in the assay on SK-MEL-5, less than 0.000001 µg/mL. Moreover, the LC-50 in the assay on OVCAR-3 is 0.0097 µg/mL; in the assay on SF-295, greater than 0.01 µg/mL; in the assay with A498, greater than 0.01 µg/mL; in the assay on NCI-H460, greater than 0.01 µg/mL; in the assay with KM20L2, greater than 0.01 µg/mL; in the assay with SK-MEL-5, greater than 0.01 µg/mL. Besides, the concentration for total growth inhibition (TGI) in the assay on OVCAR-3 was 0.28 ng/mL; with SF-295, greater than 10 ng/mL; in the assay with A498 it was 6.9 ng/mL; in the assay with NCI-H460, 0.37 ng/mL; in the assay on KM20L2, 1.3 ng/mL; with SK-MEL-5, greater than 10 ng/mL.
